{"source": "patent US20220193025A1", "about": "“USE OF DIANHYDROHEXITOL TO ELIMINATE THE COSMETIC EFFECTS OF ACNE, DANDRUFF AND BAD ODORS” (ROQUETTE FRERES, priority 2019, published 2022)", "key": {"[1]": {"system": "Staphylococcus epidermidis strain", "assay": "Example 3: microbial population count over 28 days after contamination (microtiter method, TTC)", "type": "cell-based", "conditions": "for Number of colony forming strains after: 24 h / Number of colony forming strains after: 7 days / Number of colony forming strains after: 14 days / Number of colony forming strains after: 21 days / Number of colony forming strains after: 28 days: 22° C.", "description": "(§1) The samples are prepared under sterile conditions and deposited in microplates (2-ml wells) with the concentrations hereunder. Two analysis controls were produced: a positive control corresponding to 0.5% Phenonip®; a negative control consisting of 0.85% physiological saline solution. Samples and controls are contaminated by three bacterial strains, Staphylococcus epidermidis, Corynebacterium xerosis and Propionobacterium acnes, with around 1.43×10^5 to 4.15×10^5 colony forming units per milliliter, denoted cfu/ml. After contamination, the samples are carefully mixed by suction-discharge cycles in order to ensure a uniform distribution of the microorganism. The whole is incubated at 22° C. during 28 days. The microbial population is sampled and counted at 24 hours, 7, 14, 21 and 28 days for each bacterial strain. The contaminated samples are collected and then deposited in serial dilutions in microtiter plates, in the presence of culture medium, which is a saline solution with 0.85% sodium chloride, and a dehydrogenase activity indicator reagent, which is 2,3,5-triphenyltetrazolium chloride (denoted TTC). The results are presented in the following pages with the variation of the microbial population over the 28 days of study, for the tested microbial strain. The measurements of microbial populations in the samples collected at each time, are carried out according to the following microtiter method, for one sample collection. In the 96 wells with a volume of 250 μL of a microtiter plate, 20 μL of the collected sample are diluted by a factor of 10 by dispersion in 180 μL of Letheen broth (Difco, ref. 268110) containing 1.5% of Tween 80 (Sigma, ref. […]) and TTC (Sigma, ref. […]). The microplate is incubated for 48 hours at 32.5° C., and the growth of the microorganisms is monitored by the color change, from colorless to red/pink. The highest reciprocal dilution indicating a growth makes it possible to determine the log number of each microorganism at each time. The measurements of microbial populations taken at each collection time are expressed as colony forming units/ml."}, "[2]": {"system": "Propionobacterium acnes strain", "assay": "Example 3: microbial population count over 28 days after contamination (microtiter method, TTC)", "type": "cell-based", "conditions": "for Number of colony forming strains after: 24 h / Number of colony forming strains after: 7 days / Number of colony forming strains after: 14 days / Number of colony forming strains after: 21 days / Number of colony forming strains after: 28 days: 22° C.", "description": "as §1"}, "Staphylococcus aureus": {"system": "Staphylococcus aureus", "conditions": "U.S. Pat. No. 9,295,626, table 2; cited from earlier work"}, "[3]": {"system": "Propionobacterium acnes strain", "assay": "Example 1: microbial population count over 28 days after contamination (microtiter method, TTC)", "type": "cell-based", "conditions": "for Number of colony forming strains after: 24 h / Number of colony forming strains after: 7 days / Number of colony forming strains after: 14 days / Number of colony forming strains after: 21 days / Number of colony forming strains after: 28 days: 22° C.", "description": "as §1, with “by a Propionobacterium acnes” for “by three”, “bacterial strain” for “bacterial strains, Staphylococcus epidermidis, Corynebacterium xerosis and Propionobacterium acnes,”, “for the Propionobacterium acnes” for “for each”"}}}
{"smiles": "O[C@@H]1CO[C@H]2[C@@H]1OC[C@@H]2O", "note": "[isosorbide, 1,4-3,6-dianhydrosorbitol]", "values": [{"measurement": "bactericidal effect (conclusion in words)", "setting": "[1]", "result": "weak bactericide"}, {"measurement": "reduction of the number of colony forming strains", "setting": "[1]; after 24 hours, for the three doses tested", "result": "at least 2 log 10"}, {"measurement": "colony forming strain observed", "setting": "[1]; after 7 days", "result": "not any colony forming strain"}, {"measurement": "Number of colony forming strains after: 24 h", "setting": "[1]; dose 1%", "result": "4 × 10^3 colony forming units/ml"}, {"measurement": "Number of colony forming strains after: 7 days", "setting": "[1]; dose 1%", "result": 0, "unit": "colony forming units/ml"}, {"measurement": "Number of colony forming strains after: 14 days", "setting": "[1]; dose 1%", "result": 0, "unit": "colony forming units/ml"}, {"measurement": "Number of colony forming strains after: 21 days", "setting": "[1]; dose 1%", "result": 0, "unit": "colony forming units/ml"}, {"measurement": "Number of colony forming strains after: 28 days", "setting": "[1]; dose 1%", "result": 0, "unit": "colony forming units/ml"}, {"measurement": "Number of colony forming strains after: 24 h", "setting": "[1]; dose 5%", "result": "1 × 10^3 colony forming units/ml"}, {"measurement": "Number of colony forming strains after: 7 days", "setting": "[1]; dose 5%", "result": 0, "unit": "colony forming units/ml"}, {"measurement": "Number of colony forming strains after: 14 days", "setting": "[1]; dose 5%", "result": 0, "unit": "colony forming units/ml"}, {"measurement": "Number of colony forming strains after: 21 days", "setting": "[1]; dose 5%", "result": 0, "unit": "colony forming units/ml"}, {"measurement": "Number of colony forming strains after: 28 days", "setting": "[1]; dose 5%", "result": 0, "unit": "colony forming units/ml"}, {"measurement": "Number of colony forming strains after: 24 h", "setting": "[1]; dose 9%", "result": "7 × 10^2 colony forming units/ml"}, {"measurement": "Number of colony forming strains after: 7 days", "setting": "[1]; dose 9%", "result": 0, "unit": "colony forming units/ml"}, {"measurement": "Number of colony forming strains after: 14 days", "setting": "[1]; dose 9%", "result": 0, "unit": "colony forming units/ml"}, {"measurement": "Number of colony forming strains after: 21 days", "setting": "[1]; dose 9%", "result": 0, "unit": "colony forming units/ml"}, {"measurement": "Number of colony forming strains after: 28 days", "setting": "[1]; dose 9%", "result": 0, "unit": "colony forming units/ml"}, {"measurement": "bactericidal effect (conclusion in words)", "setting": "[2]; Example 3", "result": "bactericide"}, {"measurement": "colony forming strain observed", "setting": "[2]; after 24 hours, Example 3", "result": "no colony forming strain is observed"}, {"measurement": "Number of colony forming strains after: 24 h", "setting": "[2]; dose 1%", "result": 0, "unit": "colony forming units/ml"}, {"measurement": "Number of colony forming strains after: 7 days", "setting": "[2]; dose 1%", "result": 0, "unit": "colony forming units/ml"}, {"measurement": "Number of colony forming strains after: 14 days", "setting": "[2]; dose 1%", "result": 0, "unit": "colony forming units/ml"}, {"measurement": "Number of colony forming strains after: 21 days", "setting": "[2]; dose 1%", "result": 0, "unit": "colony forming units/ml"}, {"measurement": "Number of colony forming strains after: 28 days", "setting": "[2]; dose 1%", "result": 0, "unit": "colony forming units/ml"}, {"measurement": "Number of colony forming strains after: 24 h", "setting": "[2]; dose 5%", "result": 0, "unit": "colony forming units/ml"}, {"measurement": "Number of colony forming strains after: 7 days", "setting": "[2]; dose 5%", "result": 0, "unit": "colony forming units/ml"}, {"measurement": "Number of colony forming strains after: 14 days", "setting": "[2]; dose 5%", "result": 0, "unit": "colony forming units/ml"}, {"measurement": "Number of colony forming strains after: 21 days", "setting": "[2]; dose 5%", "result": 0, "unit": "colony forming units/ml"}, {"measurement": "Number of colony forming strains after: 28 days", "setting": "[2]; dose 5%", "result": 0, "unit": "colony forming units/ml"}, {"measurement": "Number of colony forming strains after: 24 h", "setting": "[2]; dose 9%", "result": 0, "unit": "colony forming units/ml"}, {"measurement": "Number of colony forming strains after: 7 days", "setting": "[2]; dose 9%", "result": 0, "unit": "colony forming units/ml"}, {"measurement": "Number of colony forming strains after: 14 days", "setting": "[2]; dose 9%", "result": 0, "unit": "colony forming units/ml"}, {"measurement": "Number of colony forming strains after: 21 days", "setting": "[2]; dose 9%", "result": 0, "unit": "colony forming units/ml"}, {"measurement": "Number of colony forming strains after: 28 days", "setting": "[2]; dose 9%", "result": 0, "unit": "colony forming units/ml"}, {"measurement": "minimum inhibitory concentration", "setting": "Staphylococcus aureus", "result": 10, "unit": "%"}, {"measurement": "bactericidal effect (conclusion in words)", "setting": "[3]; Example 1", "result": "bactericide"}, {"measurement": "colony forming strain observed", "setting": "[3]; after 24 hours, Example 1", "result": "no colony forming strain is observed"}, {"measurement": "Number of colony forming strains after: 24 h", "setting": "[3]; dose 1%", "result": 0, "unit": "colony forming units/ml"}, {"measurement": "Number of colony forming strains after: 7 days", "setting": "[3]; dose 1%", "result": 0, "unit": "colony forming units/ml"}, {"measurement": "Number of colony forming strains after: 14 days", "setting": "[3]; dose 1%", "result": 0, "unit": "colony forming units/ml"}, {"measurement": "Number of colony forming strains after: 21 days", "setting": "[3]; dose 1%", "result": 0, "unit": "colony forming units/ml"}, {"measurement": "Number of colony forming strains after: 28 days", "setting": "[3]; dose 1%", "result": 0, "unit": "colony forming units/ml"}, {"measurement": "Number of colony forming strains after: 24 h", "setting": "[3]; dose 5%", "result": 0, "unit": "colony forming units/ml"}, {"measurement": "Number of colony forming strains after: 7 days", "setting": "[3]; dose 5%", "result": 0, "unit": "colony forming units/ml"}, {"measurement": "Number of colony forming strains after: 14 days", "setting": "[3]; dose 5%", "result": 0, "unit": "colony forming units/ml"}, {"measurement": "Number of colony forming strains after: 21 days", "setting": "[3]; dose 5%", "result": 0, "unit": "colony forming units/ml"}, {"measurement": "Number of colony forming strains after: 28 days", "setting": "[3]; dose 5%", "result": 0, "unit": "colony forming units/ml"}, {"measurement": "Number of colony forming strains after: 24 h", "setting": "[3]; dose 9%", "result": 0, "unit": "colony forming units/ml"}, {"measurement": "Number of colony forming strains after: 7 days", "setting": "[3]; dose 9%", "result": 0, "unit": "colony forming units/ml"}, {"measurement": "Number of colony forming strains after: 14 days", "setting": "[3]; dose 9%", "result": 0, "unit": "colony forming units/ml"}, {"measurement": "Number of colony forming strains after: 21 days", "setting": "[3]; dose 9%", "result": 0, "unit": "colony forming units/ml"}, {"measurement": "Number of colony forming strains after: 28 days", "setting": "[3]; dose 9%", "result": 0, "unit": "colony forming units/ml"}]}
